Reference: patent publication US20250188079A1, “INHIBITING CYCLIC AMP-RESPONSIVE ELEMENT-BINDING PROTEIN (CREB)” (Forma Therapeutics, Inc., priority 2019, published 2025)

Biological target: CBP (Homo sapiens (Human), UniProt Q92793)
Assay: HTRF biochemical assay for CBP activity (TR-FRET, bromodomain)
Assay type: binding
Conditions: geometric mean, 10-point 3-fold dilution 33 μM to 1.7 nM, read-out: BROMO IC50 TRF TB CBP (μM gmean)
Experimental: Example 1: HTRF Biochemical Assay for CBP Activity
The assay was performed in a final volume of 6 μL in assay buffer containing 50 mM Hepes (pH 7.5, (0.5M Hepes, pH 7.5 solution; Teknova H1575)), 0.5 mM GSH, 0.01% BGG (0.22 p M filtered, Sigma, G7516-25G), 0.005% BSA (0.22 μM filtered, EMD Millipore Corporation, 126575) and 0.01% Triton X-100 (Sigma, T9284-10L). Nanoliter quantities of 10-point, 3-fold serial dilution in DMSO were pre-dispensed into 1536 assay plates (Corning, #3724BC) for a final test concentration of 33 μM to 1.7 nM, top to lowest dose, respectively. 3 μL of 2×Protein and 3 μL of 2×Peptide Ligand were added to assay plates (pre-stamped with compound). Plates were incubated for varying times at room temperature prior to measuring the signal. TR-FRET (Time-Resolved Fluorescence Resonance Energy Transfer) was measured on the PHERAstar (BMG, equipped with HTRF optic module [337/520/490]) or on the Envision (PerkinElmer, equipped with the TRF Laser unit, TRF dual mirror D400/D505 and emission filters M520 and M495). Data were reported as percent inhibition compared with control wells based on the following equation: % inh=1−((TR-FRET ratio−AveLow)/(AveHigh−AveLow)) where TR-FRET ratio=(Fluorescence at 520 nm/Fluorescence at 490 nm)*10000), AveLow=average TR-FRET ratio of no enzyme control (n=32), and AveHigh=average TR-FRET ratio of DMSO control (n=32). IC50 values were determined by curve fitting of the standard 4 parameter logistic fitting algorithm included in the Activity Base software package: IDBS XE Designer Model205. Data is fitted using the Levenburg Marquardt algorithm. As set forth in Table 2 below, an IC50 value of greater than or equal to 0.001 μM and less than or equal to 0.01 μM is marked “++++”; a value greater than 0.01 μM and less than or equal to 0.1 μM is marked “+++”; a value greater than 0.1 μM and less than or equal to 1 μM is marked “++”; and a value greater than 1 μM and less than 1000 μM is marked “+.” Compounds that were not tested in a particular assay are marked “NT.”

CBP, sequence (Q92793 1085-1192): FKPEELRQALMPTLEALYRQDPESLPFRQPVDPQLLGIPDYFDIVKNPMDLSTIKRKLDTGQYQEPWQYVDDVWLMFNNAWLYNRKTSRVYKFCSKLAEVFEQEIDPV

Row | Compound | IC50 [µM]
1 | COC(=O)N1CCc2ccc3c(nc(C4CCN(S(=O)(=O)NC(C)=O)CC4)n3[C@H](C)Cc3ccccc3)c2C1 [Compound 348] | 1 to 1000
2 | COC(=O)N1CCc2ccc3c(nc(N4CCC[C@H](C(=O)O)C4)n3C[C@H](C)c3ccccc3)c2C1 [Compound 306] | 0.1 to 1
3 | COC(=O)N1CCc2ccc3c(nc([C@H]4CCC[C@H](C(=O)O)C4)n3C[C@H]3CC[C@@H](OC)CC3)c2C1 [Compound 245] | 0.01 to 0.1
4 | COC(=O)N1CCc2ccc3c(nc([C@@H]4CCC[C@@H](C(=O)O)C4)n3[C@H](C)Cc3ccccc3Cl)c2C1 (single isomer, unassigned) [Compound 263] | 0.01 to 0.1
5 | COC(=O)N1CCc2ccc3c(nc(N4CCC[C@H](C(=O)O)C4)n3[C@H](C)Cc3ccccc3)c2C1 [Compound 339] | 0.1 to 1
6 | COC(=O)N1CCc2ccc3c(nc([C@H]4CC[C@H](C(=O)O)CC4)n3[C@@H](C)C[C@H]3CC[C@H](OC)CC3)c2C1 [Compound 202] | 0.01 to 0.1
7 | COC(=O)N1CCc2ccc3c(nc([C@H]4CC[C@H](C(=O)O)CC4)n3[C@H](C)C[C@@H]3CCCCO3)c2C1 [Compound 302] | 0.1 to 1
8 | COC(=O)N1CCc2ccc3c(nc(C4CCN(S(C)(=O)=O)CC4)n3[C@H](C)Cc3ccccc3)c2C1 [Compound 319] | 0.1 to 1
9 | COC(=O)N1CCc2ccc3c(nc(C4CCCC4)n3C[C@@H](C(=O)O)c3ccccc3)c2C1 [Compound 205] | 0.01 to 0.1
10 | COC(=O)N1CCc2ccc3c(nc([C@@H]4CCC[C@@H](C(=O)O)C4)n3CC[C@H]3CC[C@@H](OC)CC3)c2C1 [Compound 215] | 0.01 to 0.1
11 | COC(=O)N1CCc2ccc3c(nc(-c4cccc(C(C)(C)C(=O)O)c4)n3[C@H](C)Cn3cc(Cl)cn3)c2C1 [Compound 320] | 0.1 to 1
12 | COC(=O)N1CCc2ccc3c(nc([C@H]4CC[C@H](C(=O)O)CC4)n3[C@H](C)C[C@@H]3CCCOC3)c2C1 [Compound 212] | 0.01 to 0.1
13 | COC(=O)N1CCc2ccc3c(nc([C@H]4CC[C@@H](C(=O)O)CC4)n3CCc3ccccc3)c2C1 [Compound 336] | 0.1 to 1
14 | COC(=O)N1CCc2ccc3c(nc(C4CCN(C(C)=O)CC4)n3[C@@H](C)Cc3cccnc3)c2C1 [Compound 207] | 0.01 to 0.1
15 | COC(=O)N1CCc2ccc3c(nc([C@H]4CC[C@H](C(=O)O)CC4)n3[C@H](C)Cn3ncc4ccccc43)c2C1 [Compound 311] | 0.1 to 1
16 | COC(=O)N1CCc2ccc3c(nc([C@H]4CC[C@H](C(=O)O)CC4)n3[C@@H](C)C[C@H]3CCCOC3)c2C1 [Compound 296] | 0.1 to 1
17 | COC(=O)N1CCc2ccc3c(nc(C4CCCCC4)n3C[C@H](C(=O)O)c3cc(F)c(Cl)cc3OC)c2C1 (single isomer, unassigned) [Compound 229] | 0.01 to 0.1

Row | Compound | IC50 [µM]
18 | COC(=O)N1CCc2ccc3c(nc(C4CCCCC4)n3C[C@H](CC(=O)O)c3ccc(F)c(F)c3)c2C1 [Compound 70] | 0.001 to 0.01
19 | COC(=O)N1CCc2ccc3c(nc(N4CCNCC4)n3[C@H](C)Cc3ccccc3)c2C1 [Compound 347] | 1 to 1000
20 | COC(=O)N1CCc2ccc3c(nc([C@H]4CC[C@H](C(=O)O)CC4)n3[C@H](C)Cc3cccc(C)c3)c2C1 [Compound 334] | 0.1 to 1
21 | COC(=O)N1CCc2ccc3c(nc([C@H]4CCC[C@H](C(=O)O)C4)n3Cc3cccc(Cl)n3)c2C1 [Compound 225] | 0.01 to 0.1
22 | COC(=O)N1CCc2ccc3c(nc(C4CCC(C(=O)O)CC4)n3[C@H](C)C[C@]3(C)CC[C@H](OC)CC3)c2C1 (stereo partly shown) [Compound 175] | 0.01 to 0.1
23 | COC(=O)N1CCc2ccc3c(nc([C@H]4CC[C@H](C(=O)O)CC4)n3[C@H](C)C[C@]3(C)CC[C@@H](OC)CC3)c2C1 [Compound 267] | 0.01 to 0.1
24 | COC(=O)N1CCc2ccc3c(nc(-c4ccc(C(=O)O)cc4)n3[C@@H](C)Cc3ccccc3)c2C1 [Compound 77] | 0.001 to 0.01
25 | COC(=O)N1CCc2ccc3c(nc(C4CCCC(C(=O)O)C4)n3C[C@H](C)c3ccc(F)c(F)c3)c2C1 (stereo in doubt) [Compound 30, (1S,3S)-3[3-[(2R)-2-(3,4-difluorophenyl)propyl]-8-(methoxycarbonyl)-3H,6H,7H,8H,9H-imidazo[4,5-h]isoquinolin-2-yl]cyclohexane-1-carboxylic acid] | 0.001 to 0.01
26 | COC(=O)N1CCc2ccc3c(nc([C@H]4CC[C@H](C(=O)O)CC4)n3[C@@H](C)Cc3c(F)cccc3F)c2C1 [Compound 289] | 0.01 to 0.1
27 | COC(=O)N1CCc2ccc3c(nc(C45CC(C4)C5)n3C[C@@H](C(=O)O)c3ccccc3)c2C1 [Compound 246] | 0.01 to 0.1
28 | COC(=O)N1CCc2ccc3c(nc([C@@H]4CCC[C@@H](C(=O)O)C4)n3[C@@H](C)Cc3ccccc3C)c2C1 (single isomer, unassigned) [Compound 17] | 0.001 to 0.01
29 | COC(=O)N1CCc2ccc3c(nc([C@H]4CCCOC4)n3C[C@H](C(=O)O)c3ccc(C)cc3)c2C1 [Compound 53] | 0.001 to 0.01
30 | COC(=O)N1Cc2c(ccc3c2nc(C2CCCCC2)n3Cc2ccccc2)CC1C (stereo not shown) [Compound 328] | 0.1 to 1
31 | COC(=O)N1CCc2ccc3c(nc([C@H]4C[C@@H](C(=O)O)C4)n3[C@H](C)Cc3ccccc3C)c2C1 [Compound 340] | 0.1 to 1
32 | COC(=O)N1CCc2ccc3c(nc([C@H]4CC[C@](C)(C(=O)O)CC4)n3[C@H](C)Cc3ccccc3)c2C1 [Compound 333] | 0.1 to 1
33 | COC(=O)N1CCc2c(C(=O)O)cc3c(nc(C4CCCCC4)n3[C@@H](C)Cc3ccccc3)c2C1 [Compound 67] | 0.001 to 0.01
34 | COC(=O)N1CCc2ccc3c(nc(C4CCCCC4)n3[C@@H](CC(=O)O)c3ccccc3)c2C1 [Compound 213] | 0.01 to 0.1

Next, values leading:

Row | IC50 [µM] | Compound
35 | 0.001 to 0.01 | COC(=O)N1CCc2ccc3c(nc(N4CCC(C(=O)O)CC4)n3[C@H](C)Cc3cc(F)cc(OC)c3)c2C1 (single isomer, unassigned) [Compound 16]
36 | 0.001 to 0.01 | (1S,3S)-3-[3-[(2S)-1-(3,4-difluorophenyl)propan-2-yl]-8-(methoxycarbonyl)-3H,6H,7H,8H,9H-imidazo[4,5-h]isoquinolin-2-yl]cyclohexane-1-carboxylic acid [Compound 60]
37 | 0.001 to 0.01 | COC(=O)N1CCc2ccc3c(nc(-c4ccc(CC(=O)O)cc4)n3[C@@H](C)Cc3ccccc3)c2C1 [Compound 78]
38 | 0.001 to 0.01 | COC(=O)N1CCc2ccc3c(nc([C@H]4CCC[C@H](C(=O)O)C4)n3[C@H](C)Cc3ccccc3C)c2C1 (single isomer, unassigned) [Compound 163]
39 | 0.001 to 0.01 | COC(=O)N1CCc2ccc3c(nc(C4CCCCC4)n3[C@H](C)C[C@H]3CC[C@@H](C(=O)O)CC3)c2C1 [Compound 142]
40 | 0.001 to 0.01 | COC(=O)N1CCc2ccc3c(nc(C4CCCCC4)n3C[C@H](C(=O)O)c3cccc(F)c3F)c2C1 [Compound 104]
41 | 0.001 to 0.01 | COC(=O)N1CCc2ccc3c(nc(N4CCCCC4)n3[C@@H](C)Cc3cccc(-c4nnn[nH]4)c3)c2C1 [Compound 108]
42 | 0.001 to 0.01 | COC(=O)N1CCc2ccc3c(nc(C4CCCCC4)n3C[C@@H](CC(=O)O)c3ccccc3C)c2C1 [Compound 98]
43 | 0.001 to 0.01 | COC(=O)N1CCc2ccc3c(nc(-c4cccc(CC(=O)O)c4)n3[C@@H](C)Cc3ccccc3)c2C1 [Compound 101]
44 | 0.001 to 0.01 | COC(=O)N1CCc2ccc3c(nc(C4CCCCC4)n3C[C@@H](CC(=O)O)c3cc(F)cc(F)c3)c2C1 [Compound 76]
45 | 0.001 to 0.01 | COC(=O)N1CCc2ccc3c(nc([C@@H]4CCC[C@@H](C(=O)O)C4)n3[C@@H](C)Cc3ccc(F)c(F)c3)c2C1 [Compound 143]
46 | 0.001 to 0.01 | COC(=O)N1CCc2ccc3c(nc(N4CCN(C(=O)C5COC5)CC4)n3[C@H](C)Cc3ccccc3)c2C1 [Compound 79]
47 | 0.001 to 0.01 | COC(=O)N1CCc2ccc3c(nc(C4CCCCC4)n3C[C@H](CC(=O)O)c3cc(F)cc(F)c3)c2C1 [Compound 37]
48 | 0.001 to 0.01 | COC(=O)N1CCc2ccc3c(nc([C@H]4CC[C@H](C(=O)O)CC4)n3[C@@H](C)Cc3cccc(F)c3F)c2C1 [Compound 71]
49 | 0.001 to 0.01 | COC(=O)N1CCc2ccc3c(nc(N4CCC(C(=O)O)CC4)n3[C@@H](C)Cc3ccccc3Cl)c2C1 (single isomer, unassigned) [Compound 14]
50 | 0.001 to 0.01 | COC(=O)N1CCc2ccc3c(nc(C45CC(C4)C5)n3C[C@H](C(=O)O)c3ccccc3)c2C1 [Compound 128]
51 | 0.001 to 0.01 | COC(=O)N1CCc2c(C#N)cc3c(nc([C@H]4CC[C@H](C(=O)O)CC4)n3CCc3ccccc3)c2C1 [Compound 121]
52 | 0.001 to 0.01 | COC(=O)N1CCc2ccc3c(nc(N4CCC(C(=O)O)CC4)n3[C@@H](C)Cc3ccccc3)c2C1 (single isomer, unassigned) [Compound 5]
